{"source": "patent US11850266B2", "about": "“Cardiomyocytes and compositions and methods for producing the same” (President and Fellows of Harvard College, priority 2019, dated 2023)", "format_in_all_cases": "cell-based, human", "key": {"[1]": {"test_system": "TNNT2+ iPSC-derived cardiomyocytes", "experiment": "Cell cycle analysis by flow cytometry (Hoechst 33342 / pyronin Y) of TNNT2+ cardiomyocytes", "description": "(§1) To prepare for differentiation, iPSCs were plated at a density between 20,000 to 80,000 cells (depending on the cell line) per well of a 12-well plate at four days prior to onset of differentiation. Cells were differentiated according to the protocol previously described by Lian et al. with some modifications (FIG. 1A) (1). Basal media was changed from StemFlex to RPMI/B27 on day 0 of differentiation. The GSK3 inhibitor, CHIR99021 (6 μM), was added for 48 hours from day 0 to day 2 of differentiation when cells were approximately 70-80% confluent. The Wnt antagonist IWP4 (5 μM) was added from days 2 to 4 of differentiation. Insulin (10 μg/ml) was added to the media starting on day 7 of differentiation, and media was changed every 2-3 days. In general, higher purity (TNNT2+) cardiomyocytes were observed when beating initiated prior to day 10 of differentiation, therefore only batches with onset of beating between days 7-10 of differentiation were included in this study. Beating cardiomyocytes were treated with Torin1 (200 nM, unless otherwise noted) or vehicle (0.02% dimethylsulfoxide (DMSO)) beginning at ˜2 days after onset of beating for 7 days (media changed with fresh Torin1 or DMSO every 2-3 days), unless otherwise noted. After Torin1 treatment, media was switched back to RPMI/B27/insulin and maintained with media change every 2-3 days until endpoint assay. In a few assays, fatty acids were added in the form of chemically defined lipids (Gibco) diluted 1:1000 simultaneous with Torin1 treatment. In some other assays, fetal bovine serum (10% FBS) was added to cells after completion of Torin treatment for 2-4 days.\nCells were dissociated and 5×10^5 to 1×10^6 cells were used per condition. For cell cycle analysis, 5×10^5 cells per condition were fixed in 70% cold ethanol for at least 2 hours to overnight at −20 degrees C. Cells were stained first with AlexaFluor 647-TNNT2 in Permeabilization Buffer (Thermo) then with Hoechst 33342 (2 μg/ml) and pyronin Y (4 μg/ml) for 20 minutes to distinguish between cells in G0, G1, and S-G2-M phases. For other stains, cells were fixed in eBioscience Intracellular Fixation buffer for 30 minutes followed washing twice in eBioscience Permeabilization Buffer and stained with the appropriate primary antibody (Table 2) in eBioscience FACS Staining buffer for 30-60 minutes. If a secondary antibody was used, cells were incubated with the appropriate secondary antibody (Table 2) for 30-60 minutes. The geometric mean fluorescence intensity (MFI) was quantified for TNNT2 and Kir2.1 antibodies. Data were acquired via a BD LSRII instrument and analyzed using FlowJo software."}, "[2]": {"test_system": "iPSC-derived cardiomyocytes", "experiment": "Western analysis of protein expression in iPSC-derived cardiomyocytes", "description": "as §1\nCells were lysed with lysis buffer (1% Triton X, 0.35% Na-deoxycholate, 1 mM EDTA, 1% protease inhibitor cocktail (Sigma), 1% phosphatase inhibitor cocktail 2 (Sigma), 1% phosphatase inhibitor cocktail 3 (Sigma), 1 mM phenylmethylsulfonyl fluoride (PMSF)) and total protein was measured with the Pierce BCA Protein Assay Kit. Samples with equal total protein quantities (prepared in Laemmli Sample Buffer (Bio-Rad)) were loaded into a Mini-Protean TGX Precast Gel (Bio-Rad) and electrophoresed for 1 hour at 100 V before transfer to a PVDF membrane using the Trans-Blot Turbo Transfer System (Bio-Rad). The Precision Plus Protein Dual Color Standards molecular weight ladder was used to estimate molecular weight of detected bands (Bio-Rad). Membranes were blocked with 5% milk or bovine serum albumin then incubated with the primary antibody (Table 2) overnight at 4 degrees C. followed by incubation with the horseradish peroxidase-conjugated secondary antibody (Table 2) for 1 hour at room temperature. The Amersham ECL Western Blotting Detection kit was used to detect the protein signal by chemiluminescence, and band densities were quantified using ImageJ software (NIH)."}, "[3]": {"test_system": "iPSC-derived cardiomyocytes", "experiment": "Calcium transients (Fluo-4 AM) analysis with Vala Kinetic Image Cytometer", "settings": "isoproterenol 1 μM, FIG. 14", "description": "To perform calcium transients analysis, 50 ul of 10 ug/ml Hoeschst 33258 and 5 μM Fluo-4 AM was added to each well of a 96 well plate and incubated for 10 minutes at 37 degrees. Media was replaced with RPMI without phenol red supplemented with 1:100 Oxyfluor and 10 uM sodium lactate. Isoproterenol (1 μM) was added to the media for isoproterenol experiments. Pacing protocol was 5 seconds delay without pacing followed by 5 seconds pacing at 1 Hz and 5 seconds imaging without pacing. Imaging was performed using the Vala Kinetic Image Cytometer at 30 fps with 33.30 ms exposure at 14.25 intensity. Stimulation pulse was 5 ms with 15V voltage. Data was collected by CyteSeer analysis program."}, "[4]": {"test_system": "BJRiPS-derived cardiomyocytes", "experiment": "Example 3 preliminary qPCR of maturation genes in BJRiPS-derived cardiomyocytes", "settings": "preliminary data, after differentiation", "description": "(§2) The BJRiPS cell line was used to generate preliminary data. BJRiPS cells were differentiated into cardiomyocytes according to previously published protocols (6). After the onset of beating (around day 10), cardiomyocytes were treated with vehicle (DMSO) or different concentrations of rapamycin, Torin1, or Torin2 for different time periods. Beating rate was counted manually. Some cells were harvested after 5-7 days of treatment for flow cytometry analysis. Other cells were harvested after 7 days of treatment for qPCR."}, "[5]": {"test_system": "iPSC-derived cardiomyocytes", "experiment": "Spontaneous beating rate of cardiomyocytes", "settings": "FIG. 29", "description": "as §2"}, "[6]": {"settings": "pifithrin-α 10 μM with Torin1 200 nM, 7 days, FIG. 5B"}}, "data": [{"smiles": "COc1ccc(C2=N[C@@H](c3ccc(Cl)cc3)[C@@H](c3ccc(Cl)cc3)N2C(=O)N2CCNC(=O)C2)c(OC(C)C)c1", "note": "[nutlin-3a]", "values": [{"measurement": "percentage of quiescent (G0) TNNT2+ cardiomyocytes versus control", "setting": "[1]; nutlin-3a 10 μM 24 hours, Torin1 200 nM 7 days, or both, BJRiPS-CMs, FIG. 6B", "value": "increased the percentage of quiescent (G0) TNNT2+ cardiomyocytes"}, {"measurement": "percentage of TNNT2+ cardiomyocytes in G1 phase versus control", "setting": "[1]; nutlin-3a 10 μM 24 hours, Torin1 200 nM 7 days, or both, FIG. 6B", "value": "decreased the percentage of TNNT2+ cardiomyocytes in G1 phase"}, {"measurement": "p53 and TNNI3 protein expression", "setting": "[2]; nutlin-3a 10 μM 24 hours, independently of Torin1, FIG. 6C", "value": "increased p53 and TNNI3 protein expression"}]}, {"smiles": "CC(C)NCC(O)c1ccc(O)c(O)c1", "note": "(stereo not shown) [isoproterenol]", "values": [{"measurement": "calcium peak rise time, peak decay time and FWHM time with isoproterenol stimulation", "setting": "[3]", "value": "further decreases"}]}, {"smiles": "Cc1ccc(C(=O)Cn2c3c(sc2=N)CCCC3)cc1", "note": "[pifithrin-α]", "values": [{"measurement": "percentage of cardiomyocytes in the cell cycle (G1, S/G2/M) versus Torin1 alone", "setting": "[1]; [6]", "value": "increased the percentage of cardiomyocytes in the cell cycle"}, {"measurement": "percentage of quiescent (G0) cardiomyocytes versus Torin1 alone", "setting": "[1]; [6]", "value": "decreased the percentage of quiescent (G0) cardiomyocytes"}, {"measurement": "Torin1-induced increase in p53 and TNNI3 protein", "setting": "[2]; pifithrin-α 10 μM with Torin1 200 nM, 7 days, FIGS. 5C-5D", "value": "inhibited the Torin1-induced increase in both p53 and TNNI3"}]}, {"smiles": "Nc1ccc(-c2ccc3ncc4ccc(=O)n(-c5cccc(C(F)(F)F)c5)c4c3c2)cn1", "note": "[Torin2]", "values": [{"measurement": "RNA expression of markers of maturation including TNNI3 and KCNJ2", "setting": "[4]", "value": "increased RNA expression"}, {"measurement": "beating rate of cardiomyocytes", "setting": "[5]; Torin1 10, 50, 200 nM, Torin2 200 nM, from day 11 for 4-5 days", "value": "decreased the beating rate"}, {"measurement": "beating rates at 1 week", "setting": "[5]; dose-dependent, BJRiPS-CMs", "value": "significantly decreased beating rates"}]}]}
